Tests used:
Assay type in all cases: in vivo
[1] = test system: redroot pigweed (Amaranthus retroflexus, AMARE); assay: Pre-emerge test, greenhouse herbicide activity screening; settings: pre-emerge, 14 days after application, scale 0-100
Summary of the method: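 Plants grown in 10 cm pots of sandy loam mix received acetone-dissolved compounds through a moving flat-fan nozzle. Doses ranged from 15 to 1000 g ai/ha. Pre-emerge pots were seeded one day earlier, post-emerge pots 8–21 days earlier. Fourteen days on, each pot was graded 0–100 for damage.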

[2] = test system: barnyardgrass (Echinochloa crus-galli, ECHCG); assay: as above; settings: pre-emerge, 14 days after application, scale 0-100
Summary of the method: (§1)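 Herbicidal damage is scored 0 (none) to 100 (complete plant death) two weeks after a simulated field spray. Rates span 15–1000 g ai/ha, delivered in acetone at 187 l/ha. For post-emergence treatments, plants have 2–3 leaves and the spray carries 0.25% v/v non-ionic surfactant.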

[3] = test system: green foxtail (Setaria viridis, SETVI); assay: as above; settings: pre-emerge, 14 days after application, scale 0-100
Summary of the method: as §1

[4] = test system: ivyleaf morningglory (Ipomoea hederacea, IPOHE); assay: as above; settings: pre-emerge, 14 days after application, scale 0-100
Summary of the method: as §1

[5] = test system: johnsongrass (Sorghum halepense, SORHA); assay: as above; settings: pre-emerge, 14 days after application, scale 0-100
Summary of the method: as §1

[6] = test system: lambsquarters (Chenopodium album, CHEAL); assay: as above; settings: pre-emerge, 14 days after application, scale 0-100
Summary of the method: as §1

[7] = test system: large crabgrass (Digitaria sanguinalis, DIGSA); assay: as above; settings: pre-emerge, 14 days after application, scale 0-100
Summary of the method: as §1

[8] = test system: sicklepod (Cassia obtusifolia, CASOB); assay: as above; settings: pre-emerge, 14 days after application, scale 0-100
Summary of the method: as §1

[9] = test system: velvetleaf (Abutilon theophrasti, ABUTH); assay: as above; settings: pre-emerge, 14 days after application, scale 0-100
Summary of the method: as §1

[10] = test system: field corn (Zea mays L., var. Dekalb 535, CORN); assay: Pre-emerge test, crop safety; settings: pre-emerge, 14 days after application, scale 0-100
Summary of the method: (§2)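 Rating: 0–100 visual injury, 14 DAA. Application: acetone, 187 l/ha, 15–1000 g ai/ha, flat-fan track sprayer with nozzle 40–45 cm above soil or canopy. Post-emerge runs used 0.25% v/v surfactant on 2–3 leaf plants.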

[11] = test system: upland rice (Oryza sp., var. Tebonnet, RICE); assay: Pre-emerge test, crop safety; settings: pre-emerge, 14 days after application, scale 0-100
Summary of the method: as §2

[12] = test system: barnyardgrass (Echinochloa crus-galli, ECHCG); assay: Post-emerge test, greenhouse herbicide activity screening; settings: post-emerge, 14 days after application, rating scale 0-100
Summary of the method: as §2

[13] = test system: green foxtail (Setaria viridis, SETVI); assay: as above; settings: post-emerge, 14 days after application, rating scale 0-100
Summary of the method: as §2

[14] = test system: ivyleaf morningglory (Ipomoea hederacea, IPOHE); assay: as above; settings: post-emerge, 14 days after application, rating scale 0-100
Summary of the method: as §2

[15] = test system: lambsquarters (Chenopodium album, CHEAL); assay: as above; settings: post-emerge, 14 days after application, rating scale 0-100
Summary of the method: as §2

[16] = test system: large crabgrass (Digitaria sanguinalis, DIGSA); assay: as above; settings: post-emerge, 14 days after application, rating scale 0-100
Summary of the method: as §2

[17] = test system: redroot pigweed (Amaranthus retroflexus, AMARE); assay: as above; settings: post-emerge, 14 days after application, rating scale 0-100
Summary of the method: as §2

[18] = test system: sicklepod (Cassia obtusifolia, CASOB); assay: as above; settings: post-emerge, 14 days after application, rating scale 0-100
Summary of the method: as §2

[19] = test system: velvetleaf (Abutilon theophrasti, ABUTH); assay: as above; settings: post-emerge, 14 days after application, rating scale 0-100
Summary of the method: as §2

[20] = test system: field corn (Zea mays L., var. Dekalb 535, CORN); assay: Post-emerge test, crop safety; settings: post-emerge, 14 days after application, rating scale 0-100
Summary of the method: as §1

[21] = test system: upland rice (Oryza sp., var. Tebonnet, RICE); assay: Post-emerge test, crop safety; settings: post-emerge, 14 days after application, rating scale 0-100
Summary of the method: as §1

Cn1c(C(F)(F)F)cc(=O)n(-c2ccc(C#N)cc2NC(=O)c2ccc3ccccc3c2)c1=O [2-140]
phytotoxicity rating AMARE ([1]; 63 g ai/ha): 100
phytotoxicity rating AMARE ([1]; 250 g ai/ha): 100
phytotoxicity rating ECHCG ([2]; 63 g ai/ha): 40
phytotoxicity rating ECHCG ([2]; 250 g ai/ha): 80
phytotoxicity rating SETVI ([3]; 63 g ai/ha): 50
phytotoxicity rating SETVI ([3]; 250 g ai/ha): 80
phytotoxicity rating IPOHE ([4]; 63 g ai/ha): 10
phytotoxicity rating IPOHE ([4]; 250 g ai/ha): 100
phytotoxicity rating SORHA ([5]; 63 g ai/ha): 10
phytotoxicity rating SORHA ([5]; 250 g ai/ha): 60
phytotoxicity rating CHEAL ([6]; 63 g ai/ha): 100
phytotoxicity rating CHEAL ([6]; 250 g ai/ha): 100
phytotoxicity rating DIGSA ([7]; 63 g ai/ha): 40
phytotoxicity rating DIGSA ([7]; 250 g ai/ha): 95
phytotoxicity rating CASOB ([8]; 63 g ai/ha): 40
phytotoxicity rating CASOB ([8]; 250 g ai/ha): 100
phytotoxicity rating ABUTH ([9]; 63 g ai/ha): 100
phytotoxicity rating ABUTH ([9]; 250 g ai/ha): 100
phytotoxicity rating CORN (crop damage) ([10]; 63 g ai/ha): 0
phytotoxicity rating CORN (crop damage) ([10]; 250 g ai/ha): 15
phytotoxicity rating RICE (crop damage) ([11]; 63 g ai/ha): 30
phytotoxicity rating RICE (crop damage) ([11]; 250 g ai/ha): 85
ECHCG phytotoxicity rating ([12]; 63 g ai/ha): 30
ECHCG phytotoxicity rating ([12]; 250 g ai/ha): 85
SETVI phytotoxicity rating ([13]; 63 g ai/ha): 40
SETVI phytotoxicity rating ([13]; 250 g ai/ha): 60
IPOHE phytotoxicity rating ([14]; 63 g ai/ha): 100
IPOHE phytotoxicity rating ([14]; 250 g ai/ha): 100
CHEAL phytotoxicity rating ([15]; 63 g ai/ha): 100
CHEAL phytotoxicity rating ([15]; 250 g ai/ha): 100
DIGSA phytotoxicity rating ([16]; 63 g ai/ha): 20
DIGSA phytotoxicity rating ([16]; 250 g ai/ha): 65
AMARE phytotoxicity rating ([17]; 63 g ai/ha): 100
AMARE phytotoxicity rating ([17]; 250 g ai/ha): 100
CASOB phytotoxicity rating ([18]; 63 g ai/ha): 100
CASOB phytotoxicity rating ([18]; 250 g ai/ha): 100
ABUTH phytotoxicity rating ([19]; 63 g ai/ha): 100
ABUTH phytotoxicity rating ([19]; 250 g ai/ha): 100
CORN phytotoxicity rating (crop damage) ([20]; 63 g ai/ha): 10
CORN phytotoxicity rating (crop damage) ([20]; 250 g ai/ha): 70
RICE phytotoxicity rating (crop damage) ([21]; 63 g ai/ha): 50
RICE phytotoxicity rating (crop damage) ([21]; 250 g ai/ha): 80

Cn1c(C(F)(F)F)cc(=O)n(-c2ccccc2NC(=O)c2ccc3ccccc3c2)c1=O [2-142]
phytotoxicity rating AMARE ([1]; 63 g ai/ha): 0
phytotoxicity rating AMARE ([1]; 250 g ai/ha): 40
phytotoxicity rating ECHCG ([2]; 63 g ai/ha): 0
phytotoxicity rating ECHCG ([2]; 250 g ai/ha): 0
phytotoxicity rating SETVI ([3]; 63 g ai/ha): 0
phytotoxicity rating SETVI ([3]; 250 g ai/ha): 0
phytotoxicity rating IPOHE ([4]; 63 g ai/ha): 0
phytotoxicity rating IPOHE ([4]; 250 g ai/ha): 0
phytotoxicity rating SORHA ([5]; 63 g ai/ha): 0
phytotoxicity rating SORHA ([5]; 250 g ai/ha): 0
phytotoxicity rating CHEAL ([6]; 63 g ai/ha): 40
phytotoxicity rating CHEAL ([6]; 250 g ai/ha): 70
phytotoxicity rating DIGSA ([7]; 63 g ai/ha): 0
phytotoxicity rating DIGSA ([7]; 250 g ai/ha): 0
phytotoxicity rating CASOB ([8]; 63 g ai/ha): 0
phytotoxicity rating CASOB ([8]; 250 g ai/ha): 0
phytotoxicity rating ABUTH ([9]; 63 g ai/ha): 0
phytotoxicity rating ABUTH ([9]; 250 g ai/ha): 0
phytotoxicity rating CORN (crop damage) ([10]; 63 g ai/ha): 0
phytotoxicity rating CORN (crop damage) ([10]; 250 g ai/ha): 0
phytotoxicity rating RICE (crop damage) ([11]; 63 g ai/ha): 0
phytotoxicity rating RICE (crop damage) ([11]; 250 g ai/ha): 0
ECHCG phytotoxicity rating ([12]; 63 g ai/ha): 0
ECHCG phytotoxicity rating ([12]; 250 g ai/ha): 0
SETVI phytotoxicity rating ([13]; 63 g ai/ha): 0
SETVI phytotoxicity rating ([13]; 250 g ai/ha): 0
IPOHE phytotoxicity rating ([14]; 63 g ai/ha): 0
IPOHE phytotoxicity rating ([14]; 250 g ai/ha): 50
CHEAL phytotoxicity rating ([15]; 63 g ai/ha): 20
CHEAL phytotoxicity rating ([15]; 250 g ai/ha): 60
DIGSA phytotoxicity rating ([16]; 63 g ai/ha): 0
DIGSA phytotoxicity rating ([16]; 250 g ai/ha): 0
AMARE phytotoxicity rating ([17]; 63 g ai/ha): 0
AMARE phytotoxicity rating ([17]; 250 g ai/ha): 40
CASOB phytotoxicity rating ([18]; 63 g ai/ha): 0
CASOB phytotoxicity rating ([18]; 250 g ai/ha): 10
ABUTH phytotoxicity rating ([19]; 63 g ai/ha): 0
ABUTH phytotoxicity rating ([19]; 250 g ai/ha): 40
CORN phytotoxicity rating (crop damage) ([20]; 63 g ai/ha): 10
CORN phytotoxicity rating (crop damage) ([20]; 250 g ai/ha): 15
RICE phytotoxicity rating (crop damage) ([21]; 63 g ai/ha): 10
RICE phytotoxicity rating (crop damage) ([21]; 250 g ai/ha): 0

COc1c(Cl)cc(F)c(-n2c(=O)cc(C(F)(F)F)n(C)c2=O)c1NC(=O)COc1ccc(Cl)cc1Cl [2-154]
phytotoxicity rating AMARE ([1]; 63 g ai/ha): 100
phytotoxicity rating AMARE ([1]; 250 g ai/ha): 100
phytotoxicity rating ECHCG ([2]; 63 g ai/ha): 50
phytotoxicity rating ECHCG ([2]; 250 g ai/ha): 95
phytotoxicity rating SETVI ([3]; 63 g ai/ha): 70
phytotoxicity rating SETVI ([3]; 250 g ai/ha): 100
phytotoxicity rating IPOHE ([4]; 63 g ai/ha): 80
phytotoxicity rating IPOHE ([4]; 250 g ai/ha): 100
phytotoxicity rating SORHA ([5]; 63 g ai/ha): 80
phytotoxicity rating SORHA ([5]; 250 g ai/ha): 95
phytotoxicity rating CHEAL ([6]; 63 g ai/ha): 100
phytotoxicity rating CHEAL ([6]; 250 g ai/ha): 100
phytotoxicity rating DIGSA ([7]; 63 g ai/ha): 85
phytotoxicity rating DIGSA ([7]; 250 g ai/ha): 95
phytotoxicity rating CASOB ([8]; 63 g ai/ha): 60
phytotoxicity rating CASOB ([8]; 250 g ai/ha): 95
phytotoxicity rating ABUTH ([9]; 63 g ai/ha): 100
phytotoxicity rating ABUTH ([9]; 250 g ai/ha): 100
phytotoxicity rating CORN (crop damage) ([10]; 63 g ai/ha): 10
phytotoxicity rating CORN (crop damage) ([10]; 250 g ai/ha): 90
phytotoxicity rating RICE (crop damage) ([11]; 63 g ai/ha): 35
phytotoxicity rating RICE (crop damage) ([11]; 250 g ai/ha): 70
ECHCG phytotoxicity rating ([12]; 63 g ai/ha): 80
ECHCG phytotoxicity rating ([12]; 250 g ai/ha): 95
SETVI phytotoxicity rating ([13]; 63 g ai/ha): 40
SETVI phytotoxicity rating ([13]; 250 g ai/ha): 95
IPOHE phytotoxicity rating ([14]; 63 g ai/ha): 100
IPOHE phytotoxicity rating ([14]; 250 g ai/ha): 100
CHEAL phytotoxicity rating ([15]; 63 g ai/ha): 100
CHEAL phytotoxicity rating ([15]; 250 g ai/ha): 100
DIGSA phytotoxicity rating ([16]; 63 g ai/ha): 10
DIGSA phytotoxicity rating ([16]; 250 g ai/ha): 85
AMARE phytotoxicity rating ([17]; 63 g ai/ha): 100
AMARE phytotoxicity rating ([17]; 250 g ai/ha): 100
CASOB phytotoxicity rating ([18]; 63 g ai/ha): 50
CASOB phytotoxicity rating ([18]; 250 g ai/ha): 100
ABUTH phytotoxicity rating ([19]; 63 g ai/ha): 100
ABUTH phytotoxicity rating ([19]; 250 g ai/ha): 100
CORN phytotoxicity rating (crop damage) ([20]; 63 g ai/ha): 10
CORN phytotoxicity rating (crop damage) ([20]; 250 g ai/ha): 85
RICE phytotoxicity rating (crop damage) ([21]; 63 g ai/ha): 65
RICE phytotoxicity rating (crop damage) ([21]; 250 g ai/ha): 90
